The test system of one experiment is drug-naïve rats. Particulars: previous studies (Harrison et al., 2002; Macey et al., 2001); cited from earlier work.
In experiment [1] the test system is male Wistar rats. An excerpt: (§1) Animals were trained to respond according to a modification of the discrete-trial current-threshold procedure of Kornetsky and Esposito (Fed Proc 38:2473-2476, 1979), which has been described in detail previously (Markou and Koob, 1992 Physiol Behav 51:111-119). Briefly, a trial was initiated by the delivery of a non-contingent electrical stimulus. […] The current intensity delivered was adjusted for each animal and typically ranged from 50 to 200 μA. […] After a variable inter-trial interval (7.5-12.5 sec, average of 10 sec), another trial was initiated with the delivery of a non-contingent electrical stimulus. […] Responding during the inter-trial interval delayed the onset of the next trial by 12.5 sec. Current levels were varied in alternating descending and ascending series. A set of three trials was presented for each current intensity. Current intensities were altered in 5 μA steps. In each testing session, four alternating descending-ascending series were presented. […] The overall threshold of the session was defined as the mean of the thresholds for the four individual series. Each testing session was ˜30 min in duration. The latency between the onset of the non-contingent stimulus and a positive response was recorded as the response latency. The response latency for each test session was defined as the mean response latency of all trials during which a positive response occurred. After establishment of stable ICSS reward thresholds, rats were tested in the ICSS procedure once daily except for the spontaneous nicotine withdrawal experiment when rats were tested at time-points according to the experimental design.
Systemic administration experiments. These experiments investigated whether nicotine withdrawal, as measured by elevations in ICSS thresholds, could be precipitated in nicotine-treated rats by systemic administration of an agonist at mGluII receptors (LY314582), an agonist at GABAB receptors (CGP44532), or antagonists at mGlu5 (MPEP), NMDA (MK-801) or AMPA/Kainate (NBQX) glutamate receptors. For each drug tested, rats were trained in the ICSS paradigm until stable baseline responding was achieved, defined as ≦10% variation in thresholds for 3 consecutive days and requiring approximately 14 days of daily testing. […] One group was then prepared with subcutaneous osmotic mini-pumps delivering vehicle and the second group with mini-pumps delivering 9 mg/kg/day nicotine hydrogen tartrate (3.16 mg/kg/day nicotine free base). There was a minimum seven-day interval after mini-pump implantation, during which ICSS reward thresholds continued to be measured daily, before the effect of any systemically administered drug on reward thresholds was evaluated.

Experiment [2] has as its system male Wistar rats. Description: ICSS thresholds after intra-ventral tegmental area LY314582. Format: in vivo, rat. The method, then: All injections were administered bilaterally in a volume of 0.5 μl/side given over 66 sec through 17 mm injectors. The injectors were connected to calibrated polyethylene-10 tubing preloaded with drug solution and protruded 3 mm below the ends of the cannulas into the VTA. After infusion, the injectors were kept in place for an additional 60 sec to allow for drug diffusion. Injectors were then removed and replaced with 14 mm wire stylets, and the animals then placed directly into the ICSS testing apparatus. Injections were made using a Harvard microinfusion pump (Model 975).
After stable baseline ICSS responding was achieved (≦10% variation in threshold for 3 consecutive days), rats (n=15) with bilateral cannulas directed toward the VTA were allocated to two groups such that there were no differences in mean baseline reward thresholds or body weight between groups. […] Animals again were tested in the ICSS paradigm each day for seven days prior to drug treatment. […] There was a minimum 48 h interval between each injection, during which ICSS thresholds continued to be measured, to allow thresholds to return to baseline levels before further drug tests. At the conclusion of the experiment, all animals were anaesthetized and their brains removed and immediately placed on ice. The brains were cut in 50 μm sections, and placements of the injectors and the electrodes were examined (see FIG. 1 for histological verification of injection sites). Only those rats with injection tips located within the VTA were included in statistical analyses.

The subject of experiment [3] is male Wistar rats. Description: ICSS thresholds during spontaneous nicotine withdrawal. The format is in vivo, rat. To be noted: for ICSS reward thresholds: 1 mg/kg, 30 min before the 18 h time-point.
Source text: as §1
Osmotic mini-pumps were surgically removed from nicotine-treated rats (n=15) (defined as rats having been prepared with mini-pumps delivering 3.16 mg/kg/day nicotine free-base for at least seven days) or corresponding control rats (n=17; rats prepared with vehicle-containing mini-pumps). All rats were then tested in the ICSS procedure at 12, 18, 24, 36, 48 and 72 hr after the removal of osmotic mini-pumps. These time points were chosen based on the time course of threshold elevations previously observed during spontaneous nicotine withdrawal after removal of nicotine-delivering osmotic mini-pumps (Harrison et al., 2001, Neuropsychopharmacology 25:55-71; K.L.). […] Thirty min before being tested at the 18 h time-point, one group of nicotine withdrawing and one group of control rats were injected with LY341495 (1 mg/kg); the remaining rats were injected with vehicle.

A further experiment concerns Wistar rats. Briefly: Nicotine self-administration under a fixed ratio schedule (LY341495, LY341495 and MPEP).
[4] abbreviates: CGP44532 0.065 mg/kg i.p., Nicotine-treated rats.
Setting [5] is: CGP44532 0.065 mg/kg i.p., Vehicle-treated rats.
[6] abbreviates: CGP44532 0.125 mg/kg i.p., Nicotine-treated rats.
[7] abbreviates: CGP44532 0.125 mg/kg i.p., Vehicle-treated rats.
Where [8] appears, read: CGP44532 0.25 mg/kg i.p., Nicotine-treated rats.
[9] abbreviates: CGP44532 0.25 mg/kg i.p., Vehicle-treated rats.
Setting [10] is: CGP44532 0.5 mg/kg i.p., Nicotine-treated rats.
The mark [11] stands for this setting: CGP44532 0.5 mg/kg i.p., Vehicle-treated rats.

Structures are written as SMILES. Read-outs that look alike come from different tables or passages of the source.

Take `CP(=O)(O)C[C@@H](O)CN` [CGP44532, 3-Amino-2-(S)-hydroxypropyl-methyl-phosphinic acid]: the “dose that elevated ICSS thresholds in drug-naïve rats” value in the experiment on drug-naïve rats was at least 0.25 mg/kg. In addition, the “ICSS Thresholds” value with male Wistar rats [1] (setting [4]) is on record as 96.37 ± 3.2 percentage of baseline; in the experiment with male Wistar rats [1] (setting [5]), 96.28 ± 3.1 percentage of baseline; in the experiment on male Wistar rats [1] (setting [6]), 103.88 ± 7.2 percentage of baseline; in the experiment with male Wistar rats [1] (setting [7]), 106.76 ± 3.2 percentage of baseline; in the experiment with male Wistar rats [1] (setting [8]) it was 109.98 ± 5.4 percentage of baseline; in the experiment with male Wistar rats [1] (setting [9]), 109.14 ± 5.1 percentage of baseline. In addition, the “ICSS Thresholds” value in the experiment with male Wistar rats [1] (setting [10]) was 146.83 ± 14.3 percentage of baseline; in the experiment with male Wistar rats [1] (setting [11]), 148.43 ± 16.6 percentage of baseline. Also, the “ICSS response Latencies” value in the experiment on male Wistar rats [1] (setting [4]) is reported as 106.02 ± 8.1 percentage of baseline; in the experiment with male Wistar rats [1] (setting [5]) it was 97.31 ± 3.8 percentage of baseline; in the experiment on male Wistar rats [1] (setting [6]), 98.15 ± 5.3 percentage of baseline; with male Wistar rats [1] (setting [7]) it was 102.34 ± 2.8 percentage of baseline; in the experiment on male Wistar rats [1] (setting [8]), 99.05 ± 3.1 percentage of baseline; in the experiment with male Wistar rats [1] (setting [9]) it was 105.03 ± 3.1 percentage of baseline. Also, the “ICSS response Latencies” value is recorded as 98.11 ± 5.4 percentage of baseline in the experiment on male Wistar rats [1] (setting [10]), 106.13 ± 6.5 percentage of baseline in the experiment with male Wistar rats [1] (setting [11]) and “had no effect on response latencies at any dose tested” in the experiment on male Wistar rats [1] (CGP44532 0.065-0.5 mg/kg). The ICSS reward thresholds result with male Wistar rats [1] (CGP44532 0.5 mg/kg, p<0.001) was “elevated reward thresholds in nicotine-treated and control rats”; with male Wistar rats [1] (CGP44532 0.065-0.25 mg/kg, nicotine treated rats) it was “did not precipitate reward threshold elevations in nicotine treated rats at the lowest doses tested”.
Regarding `NC1(C(=O)O)CCC2C(C(=O)O)C21` (racemic) [LY314582, 2-aminobicyclo(3.1.0)hexane-2,6-dicarboxylic acid], the ICSS response Latencies entry was “had no effect on response latencies” in the experiment on male Wistar rats [2] (after VTA administration, nicotine-treated or control rats) and “had no effect on response latencies in nicotine-treated or control rats” with male Wistar rats [1] (LY314582 2.5-7.5 mg/kg i.p., any dose tested). The ICSS reward thresholds entry with male Wistar rats [2] (bilateral microinfusion into the VTA, 10-100 ng/side) was “significantly elevated reward thresholds in nicotine-treated but not control rats”; in the experiment on male Wistar rats [2] (intra-VTA 50 and 100 ng/side), “sufficient to elevate reward thresholds in nicotine-treated rats without affecting thresholds in control rats”; in the experiment with male Wistar rats [1] (7.5 mg/kg i.p., nicotine-treated rats, p<0.01), “elevated reward thresholds in nicotine-treated rats compared to vehicle treatment”; in the experiment on male Wistar rats [1] (2.5-7.5 mg/kg intraperitoneal, nicotine-treated and control rats) it was “elevated ICSS reward thresholds in nicotine-treated but not control rats”. Moreover, the “dose that elevated ICSS thresholds in drug-naïve rats” value in the experiment with drug-naïve rats was at least 10 mg/kg.
Consider `N[C@](CC1c2ccccc2Oc2ccccc21)(C(=O)O)[C@H]1C[C@@H]1C(=O)O` [LY341495, 2S-2-amino-2-(1S,2S-2-carboxycyclopropan-1-yl)-3-(xanth-9-yl)propionic acid], for which the ICSS reward thresholds result is “without affecting thresholds in control rats” in the experiment with male Wistar rats [3] (control rats) and “significantly attenuated the elevations in reward thresholds in nicotine-withdrawing rats” in the experiment with male Wistar rats [3] (nicotine-withdrawing rats, p<0.001). For the same molecule, the ICSS response Latencies result in the experiment with male Wistar rats [3] (LY341495 1 mg/kg) is given as “had no effect on response latencies at any time-point after injection”. For the same molecule, the nicotine responding result in the experiment with Wistar rats (0.1, 0.5, 3 and 5 mg/kg LY341495) is listed as “significantly decreased nicotine responding”. Moreover, the “decrease of nicotine self-administration” value in the experiment on Wistar rats (LY341495 0.5 mg/kg) is reported as “approximately 35%”. Moreover, the nicotine self-administration result with Wistar rats (LY341495 0.5 mg/kg alone, p<0.05) is “significantly decreased nicotine self-administration”.
